Columns and labels:
[1] = molecular target: T1, Angiotensin-converting enzyme (Oryctolagus cuniculus, UniProt P12822); assay: biochemical; type: tissue-based, Lung;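 also: enzymatic inhibition of angiotensin-converting enzyme measured with FAPGG as the substrate; in other assays of this panel Not Active means under 50% inhibition at 10 µM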
T1 sequence (P12822 whole entry): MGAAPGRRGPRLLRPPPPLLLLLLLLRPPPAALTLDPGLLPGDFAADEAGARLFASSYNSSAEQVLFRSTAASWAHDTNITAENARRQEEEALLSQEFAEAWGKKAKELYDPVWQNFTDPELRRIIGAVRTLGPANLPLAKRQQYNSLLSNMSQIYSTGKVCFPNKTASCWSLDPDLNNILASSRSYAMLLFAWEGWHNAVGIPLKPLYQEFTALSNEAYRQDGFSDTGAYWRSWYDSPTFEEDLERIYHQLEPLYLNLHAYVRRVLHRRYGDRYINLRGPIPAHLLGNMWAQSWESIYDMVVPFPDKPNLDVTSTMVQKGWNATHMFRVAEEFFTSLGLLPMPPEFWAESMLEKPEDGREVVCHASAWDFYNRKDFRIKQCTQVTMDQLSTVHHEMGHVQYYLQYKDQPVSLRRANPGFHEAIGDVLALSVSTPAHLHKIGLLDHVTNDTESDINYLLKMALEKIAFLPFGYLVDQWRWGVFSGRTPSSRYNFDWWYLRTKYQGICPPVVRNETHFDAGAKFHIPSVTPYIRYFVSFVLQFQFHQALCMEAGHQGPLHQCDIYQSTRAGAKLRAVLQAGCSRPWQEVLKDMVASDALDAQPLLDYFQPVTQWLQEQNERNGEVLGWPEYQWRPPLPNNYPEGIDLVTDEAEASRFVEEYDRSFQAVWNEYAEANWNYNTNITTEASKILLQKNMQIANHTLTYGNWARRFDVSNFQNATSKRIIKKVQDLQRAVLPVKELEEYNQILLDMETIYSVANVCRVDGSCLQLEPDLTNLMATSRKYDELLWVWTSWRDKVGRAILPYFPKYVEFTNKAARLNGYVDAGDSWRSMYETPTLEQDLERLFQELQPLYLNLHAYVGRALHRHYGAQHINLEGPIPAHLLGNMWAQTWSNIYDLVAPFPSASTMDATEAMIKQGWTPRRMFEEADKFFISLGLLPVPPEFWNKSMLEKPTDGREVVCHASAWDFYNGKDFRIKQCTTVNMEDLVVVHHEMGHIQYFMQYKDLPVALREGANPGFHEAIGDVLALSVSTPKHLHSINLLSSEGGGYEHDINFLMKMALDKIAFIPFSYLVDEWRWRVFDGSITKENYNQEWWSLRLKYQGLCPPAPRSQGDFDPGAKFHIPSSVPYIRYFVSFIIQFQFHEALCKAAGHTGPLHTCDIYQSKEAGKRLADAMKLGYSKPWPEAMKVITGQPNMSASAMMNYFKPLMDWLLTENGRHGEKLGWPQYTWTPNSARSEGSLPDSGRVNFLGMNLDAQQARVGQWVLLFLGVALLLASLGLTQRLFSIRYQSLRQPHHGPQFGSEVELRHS

[2] = molecular target: Receptor tyrosine-protein kinase erbB-2 (Homo sapiens, UniProt P04626); assay: biochemical; type: cell-based, Insect cells; conditions: insect cells;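 also: inhibition of HER2 kinase enzyme activity, measured with Poly(Glu:Tyr) as the phosphorylation substrate; in other assays of this panel Not Active means under 50% inhibition at 10 µM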
Chain of Receptor tyrosine-protein kinase erbB-2 (P04626 whole entry): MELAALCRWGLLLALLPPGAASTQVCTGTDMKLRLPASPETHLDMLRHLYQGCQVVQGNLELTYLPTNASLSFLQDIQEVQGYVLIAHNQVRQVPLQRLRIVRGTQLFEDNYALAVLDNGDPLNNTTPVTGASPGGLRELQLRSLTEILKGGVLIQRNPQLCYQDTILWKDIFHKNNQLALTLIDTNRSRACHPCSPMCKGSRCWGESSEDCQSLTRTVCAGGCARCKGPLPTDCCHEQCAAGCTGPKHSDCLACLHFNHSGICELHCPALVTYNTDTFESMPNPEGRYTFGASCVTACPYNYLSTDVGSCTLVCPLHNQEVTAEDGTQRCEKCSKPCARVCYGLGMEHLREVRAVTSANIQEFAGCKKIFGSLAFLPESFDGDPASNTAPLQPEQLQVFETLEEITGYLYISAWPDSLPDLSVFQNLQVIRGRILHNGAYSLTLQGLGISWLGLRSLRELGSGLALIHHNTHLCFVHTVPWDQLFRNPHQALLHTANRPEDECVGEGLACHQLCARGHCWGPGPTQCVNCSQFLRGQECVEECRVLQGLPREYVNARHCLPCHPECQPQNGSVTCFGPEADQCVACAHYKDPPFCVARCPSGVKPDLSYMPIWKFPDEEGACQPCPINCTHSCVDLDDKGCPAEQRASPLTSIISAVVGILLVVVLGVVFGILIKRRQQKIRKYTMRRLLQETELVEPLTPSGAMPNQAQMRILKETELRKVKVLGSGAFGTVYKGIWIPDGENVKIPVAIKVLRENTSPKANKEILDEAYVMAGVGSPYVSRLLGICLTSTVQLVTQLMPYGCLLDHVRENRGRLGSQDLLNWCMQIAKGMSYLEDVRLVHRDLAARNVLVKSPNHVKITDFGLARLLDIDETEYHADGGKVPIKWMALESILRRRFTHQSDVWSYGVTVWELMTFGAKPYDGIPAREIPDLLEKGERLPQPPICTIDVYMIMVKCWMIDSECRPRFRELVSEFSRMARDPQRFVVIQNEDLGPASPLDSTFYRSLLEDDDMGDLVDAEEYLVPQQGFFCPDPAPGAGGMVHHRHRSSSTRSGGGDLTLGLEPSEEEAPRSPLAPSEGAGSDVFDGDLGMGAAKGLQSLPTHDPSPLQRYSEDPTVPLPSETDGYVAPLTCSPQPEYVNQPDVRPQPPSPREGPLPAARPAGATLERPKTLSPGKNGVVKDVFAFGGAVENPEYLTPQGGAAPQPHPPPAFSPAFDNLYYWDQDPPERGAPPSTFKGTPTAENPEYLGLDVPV

[3] = molecular target: Aldo-keto reductase family 1 member B1 (Rattus norvegicus, UniProt P07943); type: tissue-based, Lens of camera-type eye;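 also: inhibition of aldose reductase enzyme activity, measured with DL-glyceraldehyde as the substrate; in other assays of this panel Not Active means under 50% inhibition at 10 µM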
[4] = molecular target: T2, Caspase-1 (Homo sapiens, UniProt P29466); set-up: species or system Escherichia coli;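 also: Caspase-1 enzyme inhibition assay with a peptide substrate; in other assays of this panel Not Active means under 50% inhibition at 10 µM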
T2 sequence (P29466 whole entry): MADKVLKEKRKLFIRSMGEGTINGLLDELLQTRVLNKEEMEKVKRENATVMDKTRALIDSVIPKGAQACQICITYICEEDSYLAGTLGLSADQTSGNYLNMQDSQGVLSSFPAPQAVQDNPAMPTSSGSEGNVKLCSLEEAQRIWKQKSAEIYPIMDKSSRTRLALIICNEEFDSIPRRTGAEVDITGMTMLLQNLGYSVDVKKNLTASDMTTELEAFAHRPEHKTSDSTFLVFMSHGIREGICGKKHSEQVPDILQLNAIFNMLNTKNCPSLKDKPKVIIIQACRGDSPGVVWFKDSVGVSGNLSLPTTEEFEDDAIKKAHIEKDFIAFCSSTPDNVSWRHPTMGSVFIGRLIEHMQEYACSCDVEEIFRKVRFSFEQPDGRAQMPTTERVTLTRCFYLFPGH

[5] = molecular target: T3, Cytochrome P450 2A6 (Homo sapiens, UniProt P11509); conditions: bti-tn-5b1-4; also: in other assays of this panel Not Active means under 50% inhibition at 10 µM
T3 sequence (P11509 whole entry): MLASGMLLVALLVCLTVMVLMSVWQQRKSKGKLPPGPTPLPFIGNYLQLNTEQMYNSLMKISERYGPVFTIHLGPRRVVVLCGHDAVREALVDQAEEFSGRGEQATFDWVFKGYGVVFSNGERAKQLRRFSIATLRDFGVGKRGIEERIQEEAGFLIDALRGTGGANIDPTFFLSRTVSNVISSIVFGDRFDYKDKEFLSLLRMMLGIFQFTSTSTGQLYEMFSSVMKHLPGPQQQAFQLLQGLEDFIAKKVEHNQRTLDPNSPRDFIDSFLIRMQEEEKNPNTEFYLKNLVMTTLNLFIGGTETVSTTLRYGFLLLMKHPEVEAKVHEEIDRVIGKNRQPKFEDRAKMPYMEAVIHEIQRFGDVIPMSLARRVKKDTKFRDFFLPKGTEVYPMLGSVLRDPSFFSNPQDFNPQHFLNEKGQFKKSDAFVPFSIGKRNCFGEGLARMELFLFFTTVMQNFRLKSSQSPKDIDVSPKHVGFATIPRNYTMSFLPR

[6] = molecular target: T4, Alpha-2A adrenergic receptor (Homo sapiens, UniProt P08913); type: cell membranes, Sf9, Membrane; also: in other assays of this panel Not Active means under 50% inhibition at 10 µM
T4 sequence (P08913 whole entry): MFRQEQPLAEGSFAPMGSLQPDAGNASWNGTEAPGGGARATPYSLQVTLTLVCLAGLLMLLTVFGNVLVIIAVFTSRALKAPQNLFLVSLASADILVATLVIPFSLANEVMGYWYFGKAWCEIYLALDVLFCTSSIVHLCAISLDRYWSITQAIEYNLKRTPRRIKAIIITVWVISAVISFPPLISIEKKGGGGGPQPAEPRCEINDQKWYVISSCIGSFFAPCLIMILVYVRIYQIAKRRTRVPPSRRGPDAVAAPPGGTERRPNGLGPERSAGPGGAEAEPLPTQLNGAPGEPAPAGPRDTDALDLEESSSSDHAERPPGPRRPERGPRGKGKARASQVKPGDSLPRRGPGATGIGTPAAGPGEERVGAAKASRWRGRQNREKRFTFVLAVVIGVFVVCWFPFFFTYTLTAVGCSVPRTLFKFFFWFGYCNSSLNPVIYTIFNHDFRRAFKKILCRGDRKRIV

[7] = DRUGMATRIX: Glutamate, Kainate radioligand binding (ligand: [3H] Kainic acid); type: cell membranes, Rattus norvegicus, Wistar, Brain, Membrane; conditions: Not Active = under 50% inhibition at 10 µM
[8] = molecular target: Matrix metalloproteinase-9 (Homo sapiens, UniProt P14780); type: cell-based
Chain of Matrix metalloproteinase-9 (P14780 whole entry): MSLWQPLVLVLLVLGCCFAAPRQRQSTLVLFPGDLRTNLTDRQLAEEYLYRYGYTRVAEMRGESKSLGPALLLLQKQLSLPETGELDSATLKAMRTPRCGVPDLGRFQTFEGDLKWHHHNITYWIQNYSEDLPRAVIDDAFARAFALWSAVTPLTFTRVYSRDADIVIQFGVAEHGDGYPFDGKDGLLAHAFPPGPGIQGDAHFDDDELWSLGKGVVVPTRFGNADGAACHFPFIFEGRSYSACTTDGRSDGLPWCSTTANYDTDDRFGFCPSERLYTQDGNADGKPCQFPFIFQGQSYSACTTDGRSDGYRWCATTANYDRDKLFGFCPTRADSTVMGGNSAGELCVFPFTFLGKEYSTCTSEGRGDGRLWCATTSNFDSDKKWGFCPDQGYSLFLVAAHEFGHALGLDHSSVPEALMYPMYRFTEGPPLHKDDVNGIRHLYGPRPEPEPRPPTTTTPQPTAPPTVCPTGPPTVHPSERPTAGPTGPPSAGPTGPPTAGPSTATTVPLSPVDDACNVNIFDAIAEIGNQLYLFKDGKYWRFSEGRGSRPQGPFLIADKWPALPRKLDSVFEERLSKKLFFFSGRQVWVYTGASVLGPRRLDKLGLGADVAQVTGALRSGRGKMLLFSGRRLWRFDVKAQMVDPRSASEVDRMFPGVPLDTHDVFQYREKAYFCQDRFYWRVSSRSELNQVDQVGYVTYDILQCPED

Compound	IC50 [1]	IC50 [2]	IC50 [3]	IC50 [4]	IC50 [5]	Ki [5]	IC50 ([6]; sf9)	IC50 [7]	Ki [7]	IC50 [8]	IC50 ([6]; read-out: IC50) [nM]	Ki ([6]; read-out: Ki) [nM]
C=C1CC[C@H](O)C/C1=C/C=C1\CCC[C@]2(C)[C@@H]([C@H](C)/C=C/[C@H](C)C(C)C)CC[C@@H]12 [ERGOCALCIFEROL]	Not Active	Not Active	Not Active	Not Active	Not Active	Not Active	Not Active	Not Active	Not Active	Not Active	–	–
COc1ccc(CN(CCN(C)C)c2ccccn2)cc1 [PYRILAMINE]	Not Active	Not Active	Not Active	Not Active	Not Active	Not Active	–	Not Active	Not Active	Not Active	2980	1120
CN1C(C(=O)Nc2ccccn2)=C(O)c2ccccc2S1(=O)=O [PIROXICAM]	Not Active	Not Active	Not Active	Not Active	Not Active	Not Active	Not Active	Not Active	Not Active	Not Active	–	–
CCc1ccc(C(=O)C(C)CN2CCCCC2)cc1 (stereo unspecified) [EPERISONE]	Not Active	Not Active	Not Active	Not Active	Not Active	Not Active	Not Active	Not Active	Not Active	Not Active	–	–
CC(=O)[C@@]1(O)CC[C@H]2[C@@H]3C[C@H](C)C4=CC(=O)C=C[C@]4(C)[C@@]3(F)[C@@H](O)C[C@@]21C [FLUOROMETHOLONE]	Not Active	Not Active	Not Active	Not Active	Not Active	Not Active	Not Active	Not Active	Not Active	Not Active	–	–
CCC1(c2ccccc2)C(=O)NCNC1=O [PRIMIDONE]	Not Active	Not Active	Not Active	Not Active	Not Active	Not Active	Not Active	Not Active	Not Active	Not Active	–	–
N#C[C@H](O[C@@H]1O[C@H](CO[C@@H]2O[C@H](CO)[C@@H](O)[C@H](O)[C@H]2O)[C@@H](O)[C@H](O)[C@H]1O)c1ccccc1 [AMYGDALIN]	Not Active	Not Active	Not Active	Not Active	Not Active	Not Active	Not Active	Not Active	Not Active	Not Active	–	–
CC(C)(Oc1ccc(CCNC(=O)c2ccc(Cl)cc2)cc1)C(=O)O [BEZAFIBRATE]	Not Active	Not Active	Not Active	Not Active	Not Active	Not Active	Not Active	Not Active	Not Active	Not Active	–	–
CC=CC(=O)N(CC)c1ccccc1C	Not Active	Not Active	Not Active	Not Active	Not Active	Not Active	Not Active	Not Active	Not Active	Not Active	–	–
